Experimental data as given in patent publication US6545033B1, “Fused 1-(2,6-dichloro-4-trifluoromethylphenyl)-pyrazoles, the synthesis thereof and the use thereof as pesticides” (3-Dimensional Pharmaceuticals, Inc., priority 1999, dated 2003).

Tests used:
Housefly GABA receptors = biological target: T1, Housefly GABA receptors (Musca domestica, UniProt Q75NA5); assay: In vitro assay of binding to housefly GABA receptors (3H-EBOB displacement, housefly neuronal membranes); conditions: for Compounds with the most activity (housefly 3H-EBOB binding): housefly neuronal membranes
T1 sequence (Q75NA5 30-576): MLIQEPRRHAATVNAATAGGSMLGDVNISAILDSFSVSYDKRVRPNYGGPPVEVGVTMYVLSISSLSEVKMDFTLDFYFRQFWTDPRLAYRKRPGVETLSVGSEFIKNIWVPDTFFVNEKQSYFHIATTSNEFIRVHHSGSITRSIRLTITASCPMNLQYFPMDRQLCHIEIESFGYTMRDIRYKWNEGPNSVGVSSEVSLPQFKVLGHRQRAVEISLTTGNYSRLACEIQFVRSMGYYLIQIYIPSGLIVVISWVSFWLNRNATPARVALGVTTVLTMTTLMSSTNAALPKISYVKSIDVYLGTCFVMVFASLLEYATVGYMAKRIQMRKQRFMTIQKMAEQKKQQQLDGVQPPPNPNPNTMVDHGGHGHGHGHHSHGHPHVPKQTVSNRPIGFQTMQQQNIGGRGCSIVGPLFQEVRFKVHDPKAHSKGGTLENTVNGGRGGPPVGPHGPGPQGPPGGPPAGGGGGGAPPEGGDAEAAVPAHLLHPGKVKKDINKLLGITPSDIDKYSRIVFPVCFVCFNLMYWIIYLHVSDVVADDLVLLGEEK
Description: Newly emerged houseflies (Musca domestica, available from Rincon-Vitova Insectaries, Inc., Ventura, Calif.) were sedated with carbon dioxide gas, collected in 50 mL polypropylene conical tubes, and immediately frozen by submersion in liquid nitrogen. Unless specified, all of the following work was performed at 0-4° C. After removal from liquid nitrogen, the tubes of frozen houseflies were shaken vigorously by hand to decapitate the houseflies. […] Contaminating wings were removed by holding a vacuum nozzle approximately 4 cm above the heads, and contaminating legs were separated from the heads by passage through a #15 mesh screen. All remaining debris were removed from the pool of heads using forceps. The purified heads were collected in 50 mL polypropylene conical tubes and stored in liquid nitrogen until processed further.
About 13 g of purified housefly heads were suspended in about 65 mL of 10% sucrose buffer (10% sucrose (w/w) in 10 mM Tris, pH 7.5). The heads were homogenized for about 1 minute, using a Tissumizer™ homogenizer equipped with a SDT-100EN probe (available from Tekmar-Dohrmann, Cincinnati, Ohio) running at 70% of its maximum speed. The extract was further homogenized by about 5 passes through a 40 mL Dounce tissue grinder. The extract was then centrifuged at about 500×g for about 5 minutes to pellet large debris. The supernatant was collected; the pellet was washed with an additional 65 mL of 10% sucrose buffer and centrifuged at 500×g for about 5 minutes. The second supernatant was collected and combined with the first supernatant, and the pool was filtered through a 100μ CellMicroSieve™ mesh to remove residual debris (available from BioDesign of New York, Carmel, N.Y.).
Neuronal membranes containing active GABA receptors were collected via sucrose density centrifugation by the following method. About 8 mL of 35% sucrose buffer (35% sucrose (w/w) in 10 mM Tris, pH 7.5), were dispensed into each of six 38 mL ultracentrifuge tubes. These layers were overlaid with about 8 mL of 20% sucrose buffer (20% sucrose (w/w) in 10 mM Tris, pH 7.5), and finally overlaid with about 20 mL of filtered extract supernatant. The tubes were centrifuged at about 120,000×g for about 100 min at 4° C. After centrifugation, the 10% sucrose layer and most of the 20% sucrose layer were removed by aspiration. The membranes at the interface of the 20% sucrose and 35% sucrose layers were collected, pooled, diluted with 10% sucrose buffer, and centrifuged at about 120,000×g for about 40 min at 4° C. After centrifugation, the supernatant was discarded, and the pellets resuspended in about 6.5 mL of assay buffer (10 mM phosphate, 300 mM NaCl, pH 7.5) using a 10 mL Potter-Elvehjem tissue grinder with a Teflon® pestle. Protein concentration was determined by the Bio-Rad Protein Assay (available from Bio-Rad Laboratories, Hercules, Calif.) using bovine serum albumin as a standard. The membranes were aliquoted and stored in liquid nitrogen for up to 2 months before use.
Housefly neuronal membranes were prepared as described above from housefly heads. Test compounds were dissolved in dimethylsulfoxide (DMSO) at concentrations ranging from about 2 nM to about 100 mM. About 1 μL of a dissolved test compound was dispensed into a well of a 96-well polystyrene plate. About 100 μL of ice cold assay buffer (10 mM phosphate, 300 mM NaCl, pH 7.5) containing 5.2 nM 4′-Ethynyl-4-n-[2,3-^3H2]propylbicycloorthobenzoate (^3H-EBOB, 38 Ci/mmol, available from NEN Life Science Products, Boston, Mass.) was added to the well, followed by about 100 μL of ice cold assay buffer containing about 0.5-1.0 mg/mL housefly neuronal membranes. Control wells were prepared the same way except that the housefly neuronal membranes were omitted from the “negative” wells, and the test compounds were omitted from the “positive” wells. […]

[1] = test system: cat fleas (Ctenocephalides felis), CO Fleas; assay: In vivo cat flea contact assay, CO fleas; conditions: Ctenocephalides felis, topical; contact with treated filter disk in vial, about 24-30 hours; mM = concentration of the DMSO solution, about 1 μL applied; read-out: LD50 (mM), CO Fleas
Description: This example describes an in vivo assay to screen compounds for their ability to kill cat fleas via contact.
Test compounds were dissolved in dimethylsulfoxide (DMSO) at concentrations ranging from about 0.05 mM to about 100 mM. About 1 μL of dissolved test compound was dispensed onto a 6 mm (diameter) GF/C filter disk (filter material available from Whatman Inc., Clifton, N.J.) in the bottom of a 4 mL screw-top glass vial and allowed to air dry 24-48 hours. Positive control vials were prepared in the same manner except that no test compounds were dissolved in the DMSO. About 20 newly emerged cat fleas (Ctenocephalides felis) were sedated by refrigeration at 0-4° C. and transferred to each vial. Each vial was sealed with a thin, perforated Teflon™ septum secured by an open top screw cap and held vertically in the dark. After about 24-30 hours, the healthy, moribund, and dead cat fleas in each vial were counted. The percentage of dead cat fleas in each vial was then calculated using the formula M=100(D−(FC/100))/(F−(FC/100)), in which M is the percentage of dead cat fleas due to the addition of the test compound, D is the number of dead cat fleas in the test vial, F is the total number of cat fleas in the test vial, and C is the percentage of dead cat fleas in the control vials.

[2] = biological target: Mouse Brain GABA Receptors; assay: In vitro assay of binding to mouse brain GABA receptors (3H-EBOB displacement, mouse brain membranes); conditions: displacement of 5.2 nM 3H-EBOB, about 45 min at about 24° C.
Description: Mouse brains were obtained from carbon dioxide-asphyxiated Swiss-Webster mice, washed with phosphate-buffered saline, and used either fresh or after storage at −80° C. for up to 10 months. Unless specified, all preparation steps were performed at 0-4° C. For each preparation, 20 brains were suspended in about 40 mL of 0.32 M sucrose and homogenized for about 2 minutes, using a Tissumizer™ homogenizer equipped with a SDT-100EN probe (available from Tekmar-Dohrmann, Cincinnati, Ohio) running at 50% of its maximum speed. The extract was centrifuged for about 5 min at about 1000×g to pellet intact brain tissue. The supernatant was retained and the pellet washed with an additional 40 mL of 0.32 M sucrose and centrifuged at 1000×g for about 5 minutes. The 1000×g supernatants were combined and centrifuged at about 10,000×g for about 20 min to pellet membranes. The 10,000×g supernatant was discarded and the pellet was resuspended in about 20 mL of water containing 1 mM EDTA. The sample was dialyzed two times for about 3 hours each against about 3 L of water. The sample was then centrifuged at about 25,000×g for about 30 min to pellet the membranes. After centrifugation, the supernatant was discarded and the wet pellet recovered. The protein concentration of the pellet was determined by the Bio-Rad Protein Assay (available from Bio-Rad Laboratories, Hercules, Calif.) using bovine serum albumin as a standard. The membranes were aliquoted and stored at −80° C. for up to 6 months before use.
Mouse brain membranes were prepared as described above from dissected mouse brains. Test compounds were dissolved in dimethylsulfoxide (DMSO) at concentrations ranging from about 2 nM to about 100 mM. About 1 μL of a dissolved test compound was dispensed into a well of a 96-well polystyrene plate. About 100 μL of ice cold assay buffer (10 mM phosphate, 300 mM NaCl, pH 7.5) containing 5.2 nM 4′-Ethynyl-4-n-[2,3-^3H2]propylbicycloorthobenzoate (^3H-EBOB, 38 Ci/mmol, available from NEN Life Science Products, Boston, Mass.) was added to the well, followed by about 100 μL of ice cold assay buffer containing about 0.25-0.5 mg/mL mouse brain membranes. Control wells were prepared the same way except that the mouse brain membranes were omitted from the “negative” wells, and the test compounds were omitted from the “positive” wells. The samples were incubated for about 45 min at about 24° C. and then filtered on a 0.1% (w/v) polyethylenimine-soaked glass fiber Filtermat A (available from EG&G Wallac Inc., Gaithersburg, Md.) followed by four 100 mL rinses of cold assay buffer using a Harvester 96® cell harvester (available from Tomtec, Orange, Conn.). The filtermat was air dried and radioactivity bound to the filtermat was detected with either a 1450 MicroBeta® Trilux scintillation counter (available from EG&G Wallac Inc.) or a Topcount NXT™ scintillation counter (available from Packard Instrument Co., Meriden, Conn.) using standard methods.
Specific binding was considered to be the difference between total ^3H bound to the mouse brain membranes in the absence of any inhibitors and nonspecific ^3H bound to the mouse brain membranes upon the addition of 5 μM unlabeled EBOB. The average radioactivity contained in the “negative” wells was subtracted from each of the assay wells. […] Compounds that displaced ^3H-EBOB specifically bound to the mouse brain membranes were tested at 24-48 different final concentrations, varying from about 1 nM to about 125 μM, in order to determine the concentration at which 50% of the maximum inhibition due to the addition of that compound was observed (IC50). […]

Compound | Compounds with the most activity (housefly 3H-EBOB binding) (Housefly GABA receptors) | LC50 [1] | IC50 [2] | IC50 (Housefly GABA receptors; displacement of 5.2 nM 3H-EBOB, housefly head neuronal membranes, about 45 min at about 24° C., read-out: IC50 (nM), Fly Head)
CC1CCc2nn(-c3c(Cl)cc(C(F)(F)F)cc3Cl)cc21 (racemic) [Compound 42, 2-[2,6-Dichloro-4-(trifluoromethyl)phenyl]-4-methyl-2,4,5,6-tetrahydrocyclopenta[c]pyrazole] | most activity |  |  | 
F[C@@H]1Cc2cn(-c3c(Cl)cc(C(F)(F)F)cc3Cl)nc2[C@@H]1F (relative stereo) [Compound 81, cis-2-[2,6-Dichloro-4-(trifluoromethyl)phenyl]-5,6-difluoro-2,4,5,6-tetrahydrocyclopenta[c]pyrazole] |  | 1.5 mM | 1000 nM | 
Nc1c2c(nn1-c1c(Cl)cc(C(F)(F)F)cc1Cl)CSC2 [Compound 1, 2-[2,6-Dichloro-4-(trifluoromethyl)phenyl]-4,6-dihydrothieno-[3,4-c]pyrazole-3-ylamine] | most activity |  |  | 
O=S(=O)(Oc1c2c(nn1-c1c(Cl)cc(C(F)(F)F)cc1Cl)CSC2)c1ccccc1 [Compound 6, 2-[2,6-Dichloro-4-(trifluoromethyl)phenyl]-4,6-dihydrothieno-[3,4-c]pyrazole-3-yl benzenesulfonate] |  |  | 730 nM | 
FC(F)(F)c1cc(Cl)c(-n2cc3c(n2)CCSC3)c(Cl)c1 [Compound 10, 2-[2,6-Dichloro-4-(trifluoromethyl)phenyl]-2H,4H,6H,7H-thiano[4,3-c]pyrazole] | most activity |  | 3800 nM | 
CC1(C)CCc2cn(-c3c(Cl)cc(C(F)(F)F)cc3Cl)nc21 [Compound 12, 2-[2,6-Dichloro-4-(trifluoromethyl)phenyl]-6,6-dimethyl-2,4,5,6-tetrahydrocyclopenta[c]pyrazole] | most activity |  | 30000 nM | 
FC(F)(F)c1cc(Cl)c(-n2cc3sccc3n2)c(Cl)c1 [Compound 22, 2-[2,6-Dichloro-4-(trifluoromethyl)phenyl]-2H-thieno[3,2-c]pyrazole] | most activity |  |  | 
FC1Cc2nn(-c3c(Cl)cc(C(F)(F)F)cc3Cl)cc2C1(F)F (stereo not shown) [Compound 56, 2-[2,6-Dichloro-4-(trifluoromethyl)phenyl]-4,4,5-trifluoro-2,4,5,6-tetrahydrocyclopenta[c]pyrazole] |  | 1 mM | 1000 nM | 
CC1(O)c2cn(-c3c(Cl)cc(C(F)(F)F)cc3Cl)nc2CC1F (stereo not shown) [Compound 57, 2-[2,6-Dichloro-4-(trifluoromethyl)phenyl]-5-fluoro-4-methyl-2,4,5,6-tetrahydrocyclopenta[c]pyrazol-4-ol] |  | 3.8 mM | 25000 nM | 
FC(F)(F)c1cc(Cl)c(-n2cc3c(n2)CC=C3)c(Cl)c1 [Compound 63, 2-[2,6-Dichloro-4-(trifluoromethyl)phenyl]-6-hydrocyclopenta[1,2-c]pyrazole] |  |  | 1000 nM | 
O=S(=O)(C1CCc2nn(-c3c(Cl)cc(C(F)(F)F)cc3Cl)cc21)C(F)(F)F (stereo not shown) [Compound 67] |  |  | 25000 nM | 
CSC1CCc2nn(-c3c(Cl)cc(C(F)(F)F)cc3Cl)cc21 (stereo not shown) [Compound 68, 2-[2,6-Dichloro-4-(trifluoromethyl)phenyl]-4-methylthio-2,4,5,6-tetrahydrocyclopenta[c]pyrazole] |  |  | 1000 nM | 
CC1(O)c2cn(-c3c(Cl)cc(C(F)(F)F)cc3Cl)nc2CC1(F)F (stereo not shown) [Compound 93, 2-[2,6-Dichloro-4-(trifluoromethyl)phenyl]-5,5-difluoro-4-methyl-2,4,5,6-tetrahydrocyclopenta[c]pyrazol-4-ol] |  |  | 2300 nM | 100 nM
